In patent US20140371244A1, “METHOD FOR TREATING PROSTATE CANCER BY USE OF PHARMACEUTICAL COMPOSITION CONTAINING A3 ADENOSINE RECEPTOR AGONIST” (priority 2009, published 2014):

Tests used:
[1] = tested on: human colorectal cancer HCT 116 cells; test: SRB assay, growth of HCT 116 cells; type: cell-based; settings: 72 hours
Method: In order to compare the inhibitory effect of thio-Cl-IB-MECA of the present invention on the inhibition of human colorectal cancer HCT 116 cells with the effects of other A3 adenosine receptor agonists, IB-MECA and Cl-IB-MECA, a sulforhodamine B (SRB) assay was performed.
Specifically, 10 μL of a solution of thio-Cl-IB-MECA in 10% dimethylsulfoxide (DMSO) was loaded in each well of a 96-well plate in triplicate at concentrations of 100, 50, 25 and 12.5 μM, thus making a test plate. Cells were diluted to a density of 5×10^4 cells/ml with 10% FBS-containing RPMI 1640 medium supplemented with antibiotics-antimycotics, and 190 μL of the cell suspension was added to each well so as to reach a total volume of 200 μL and was cultured in a 5% CO2 incubator at 37° C. for 3 days. At the same time, 190 μL of the same cell suspension was loaded into each of 16 wells or more of a fresh 96-well plate containing no sample (thio-Cl-IB-MECA) and was cultured in a 5% CO2 incubator at 37° C. for 30 minutes, thereby determining reference date. After the culture, 50 μL of 50% trichloroacetic acid (TCA) was added to each well, and the cells were fixed by culture at 4° C. for 1 hour. Then, the well plate was washed five times with tap water and dried. 100 μL of a 1% acetic acid solution containing […] sulforhodamine B (SRB) was added to each well to stain the cells, and the well plate was allowed to stand at room temperature for 1 hour. After the well plate has been washed five times with 1% acetic acid and sufficiently dried, 200 μL of 100 mM Tris-base was added to each well, and the bound staining liquid was dissolved and sufficiently shaken in a shaker. Then, the absorbance at 515 nm was measured using an ELISA microplate reader. Based on the measured absorbance, the cell viability of the test group relative to the control group was calculated using equation 2 above. Based on the viability at each concentration, the IC50 value of the test sample was calculated using TableCurve program.
In the cases of IB-MECA or Cl-IB-MECA, the viability of cancer cells was examined in the same manner as the case of thio-Cl-IB-MECA.

[2] = tested on: human colorectal cancer HCT 116 cells; test: Anticancer activity in nude mice transplanted with HCT 116 cells; type: in vivo, nude mice (Balb/c-nu/nu mice)
Method: HCT 116 cells were prepared at a concentration of 2×10^6 cells/200 μl (RPMI) and administered subcutaneously into the right frank of 6-week-old female nude mice (Balb/c-nu/nu mice). The tumor size was measured with calipers, and the tumor size reached about 100 mm^3, 20 mice having substantially the same tumor size were divided into a control group and three sample-treated groups. The three sample-treated group were administered orally with IB-MECA at doses of 0.02, 0.2 and 2 mg/kg, respectively, for 21 days. In the control group and the sample-treated groups, the bodyweight was measured once every week, and the tumor size was measured at intervals of 3-4 days. The tumor volume was measured using equation 3 above. In the equation, a represents the longer diameter of the tumor, b represents the shorter diameter of the tumor, and c represents the height of the tumor.
Anticancer activity was measured by an animal test in the same manner as Example 20, except that 6-week-old female nude mice were administered with Cl-IB-MECA in place of IB-MECA as a sample.
Anticancer activity was measured by an animal test in the same manner as Example 20, except that 6-week-old female nude mice were administered with thio-Cl-IB-MECA in place of IB-MECA as a sample.

[3] = tested on: ICR white mice; test: Animal toxicity test, single oral dose; type: in vivo; settings: mouse, in vivo, po
Method: In order to examine the toxicities of thio-Cl-IB-MECA and thio-IB-MECA, each of the compounds was administered orally to ICR white mice (n=10, 25 g) at a dose of 1500 mg/kg weight, and the behavioral change and state of the mice were observed.

[4] = tested on: prostate cancer cell line PC-3; test: Anticancer activity in PC-3 tumor-transplanted nude mice; type: in vivo; settings: 2 mg/kg orally every day for 35 days
Method: Based on the anticancer activity of thio-Cl-IB-MECA against prostate cancer cells, proven by the in vitro test, the anticancer activity of thio-Cl-IB-MECA was measured by an animal test. The prostate cancer cell line PC-3 was transplanted subcutaneously into nude mice, and when the tumor size reached 150-200 mm^3 after 8 days, the drug thio-Cl-IB-MECA (0.02, 0.2 and 2 mg/kg), thio-IB-MECA (2 mg/kg) or IB-MECA (2 mg/kg) was administered orally every day for 35 days. The tumor size was measured at intervals of 3-5 days. The tumor volume was measured using the following equation 3.
Tumor volume=abc×π/6 [Equation 3]
wherein a represents the longer diameter of the tumor, b represents the shorter diameter of the tumor, and c represents the height of the tumor.

Row | Compound | growth of HCT 116 cells ([1]; 100, 50, 25 and 12.5 μM) | IC50 ([1]; SRB) | inhibition rate of tumor growth ([2]; 0.02 mg/kg orally for 21 days) | inhibition rate of tumor growth ([2]; 0.2 mg/kg orally for 21 days) | inhibition rate of tumor growth ([2]; 2 mg/kg orally for 21 days) | side effects (such as a change in bodyweight) during the test period ([2]; 0.02, 0.2 and 2 mg/kg orally for 21 days) | maximum tolerance dose (MTD) [3] | survival and side effects up to 7 days after administration ([3]; 1500 mg/kg) | tumor production inhibitory activity relative to the control group [4]
1 | CNC(=O)[C@H]1O[C@@H](n2cnc3c(NCc4cccc(I)c4)nc(Cl)nc32)[C@H](O)[C@@H]1O [Cl-IB-MECA] | concentration-dependently inhibited the growth | 19.3 µM | 18.2% | 43.8% | 67.3% | survived healthfully without particular side effects |  |  | 
2 | CNC(=O)[C@H]1S[C@@H](n2cnc3c(NCc4cccc(I)c4)ncnc32)[C@H](O)[C@@H]1O [thio-IB-MECA, N^6-(3-iodobenzyl)-4′-thioadenosine-5′-N-methyluronamide] |  |  |  |  |  |  | more than 1500 mg/kg | survived healthfully without particular side effects | about 53.6%
